Data reported in PMC7698306, “Exploring the Role of a Novel Peptide from Allomyrina dichotoma Larvae in Ameliorating Lipid Metabolism in Obesity” (International Journal of Molecular Sciences, 2020).
No end group written: not given here.

Legend:
HFD-fed mice = assay: Serum biochemical parameters in HFD-fed mice; format: in vivo, C57BL/6 mice; details: EIA10 100 mg/kg/d or orlistat 60 mg/kg/d oral for 5 weeks, mean ± SEM, n = 8
Excerpt: Four-week-old male C57BL/6 mice were purchased from the Nara Bio Animal Center (NARA Biotech, Seoul, Korea) All experiments were approved by the Institutional Animal Care and Use Committee of Konkuk University (14 July 2019). All possible efforts were made to minimize the suffering and the animal count utilized in this study (KU19102). The mice were randomly divided into the following two groups after 1 week of acclimatization: n = 8 in the control group, fed a normal diet (Control, fat content of 10% kcal), and n = 30, fed a high-fat diet (HFD, fat content of 60% kcal). Mice were registered daily for food intake, and their body weights were assessed twice a week. After 5 weeks, mice with a body weight 20% higher than that of the control group were picked and divided randomly into three groups (n = 8/group): HFD + EIA10, 100 mg/kg/d; and HFD + orlistat, 60 mg/kg /d for 5 weeks. As a positive control, Orlistat was used. After 12 weeks, the mice were subjected to fasting overnight and sacrificed (Figure 2A). Blood samples were harvested for further analysis. Sections of epididymal adipose and liver tissues were fixed in 10% formaldehyde for histological analyses and frozen in liquid nitrogen.
Through heart puncture, blood samples were collected and serum was isolated through centrifugation (3000 rpm for 20 min) and processed before further study at −80 °C. An automated analyzer (Abaxis VETSVAN VS2 Chemistry Analyzer, Union City, CA, USA) assessed serum levels of blood urea nitrogen, alanine aminotransferase (ALT), alkaline phosphatase, aspartate aminotransferase (AST), total protein, serum albumin, and electrolytes. Using a fast blood lipid analyzer (OSANG Healthcare Lipid Pro, Anyang, Korea), total cholesterol (TC), low-density lipoprotein cholesterol (LDL), high-density lipoprotein cholesterol (HDL), and TG were calculated. Adiponectin was analyzed by Western blotting, and leptin was quantified using a leptin enzyme-linked immunosorbent assay (ELISA) kit (MERCK, DHB, Germany).

3T3-L1 cells = assay: Lipid accumulation in differentiated 3T3-L1 cells by Oil Red O staining; format: cell-based; details: synthesized peptides, untreated cells as control
Method: The 3T3-L1 cells were obtained from the Korean Cell Line Bank (Seoul, Korea). They were cultured and maintained in Dulbecco’s modified Eagle medium (DMEM) at 37 °C in a humidified atmosphere of 5% CO2. Additionally, 2-day post-confluent preadipocytes (designated day 0) were cultured in a 2-day differentiation medium composed of DMEM, 0.5 mM IBMX, 1 μM dexamethasone, and 5 μg/mL insulin to induce differentiation. The cells were then cultured in a DMEM containing 5 μg/mL insulin for another 2 days. The medium was replaced every 2 days until the cells had accumulated intracellular lipid droplets. Cells were seeded in 6-well plates, and adipocyte differentiation was induced for 8 days. On day 8, the cells were fixed with 10% buffered formalin and stained with Oil Red O solution for 60 min at room temperature. Images of lipid droplets in the 3T3-L1 adipocytes were captured using a Leica DMi1 microscope (Leica, Germany).

EIAQDFKTDL [EIA10]
Glucose (HFD-fed mice): 137 ± 11.47 mg/dL | ALT (alanine aminotransferase) (HFD-fed mice; serum): 58.75 ± 13.16 U/L | AST (aspartate aminotransferase) (HFD-fed mice; serum): 99.20 ± 20.00 U/L | HDL (high-density lipoprotein cholesterol) (HFD-fed mice; serum): 74.49 ± 2.57 mg/dL | LDL/VLDL (HFD-fed mice; serum): 32.97 ± 3.42 mg/dL | TC (total cholesterol) (HFD-fed mice; serum): 107.46 ± 5.15 mg/dL | TG (triglyceride) (HFD-fed mice; serum): 140.25 ± 5.23 mg/dL | Lipid Accumulation (% of Control) (3T3-L1 cells): 30.22 % of Control
